One assay addresses T1, hGLP-1R (Homo sapiens, UniProt P43220).
T1 construct: expressed in transfected cells; host or cells: CHO
As to the kind of experiment: hGLP-1R-mediated cAMP induction assay in CHO cell line.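 Also: CHO cells expressing human GLP-1R, treated 30 min at 37 °C, intracellular cAMP measured by competitive fluorescent immunoassay and converted via a cAMP standard curve.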 Format: cell-based.

A further assay concerns the target T2, hGIPR (Homo sapiens, UniProt P48546).
T2 construct: expressed in transfected cells; host or cells: CHO
T2 sequence (P48546 22-466): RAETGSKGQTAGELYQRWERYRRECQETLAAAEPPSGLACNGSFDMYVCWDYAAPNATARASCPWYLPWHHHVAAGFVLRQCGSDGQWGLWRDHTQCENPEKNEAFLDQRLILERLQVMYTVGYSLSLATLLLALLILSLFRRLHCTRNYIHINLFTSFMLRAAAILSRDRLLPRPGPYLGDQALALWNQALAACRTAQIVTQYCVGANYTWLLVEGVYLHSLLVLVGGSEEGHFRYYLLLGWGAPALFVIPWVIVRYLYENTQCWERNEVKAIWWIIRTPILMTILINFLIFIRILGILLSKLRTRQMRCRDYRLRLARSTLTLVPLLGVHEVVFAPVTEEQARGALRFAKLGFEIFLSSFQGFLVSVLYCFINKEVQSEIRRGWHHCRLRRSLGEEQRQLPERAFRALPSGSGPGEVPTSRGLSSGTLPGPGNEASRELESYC
Description: hGIPR-mediated cAMP induction assay in CHO cell line. Format: cell-based.

Read-outs that look alike come from different tables or passages of the source. Where a SMILES comes first, the peptide text is derived from it. [ ]: non-standard residue; d: D form. Aib = CC(C)(N)C(=O)O

T1 sequence (P43220 24-463): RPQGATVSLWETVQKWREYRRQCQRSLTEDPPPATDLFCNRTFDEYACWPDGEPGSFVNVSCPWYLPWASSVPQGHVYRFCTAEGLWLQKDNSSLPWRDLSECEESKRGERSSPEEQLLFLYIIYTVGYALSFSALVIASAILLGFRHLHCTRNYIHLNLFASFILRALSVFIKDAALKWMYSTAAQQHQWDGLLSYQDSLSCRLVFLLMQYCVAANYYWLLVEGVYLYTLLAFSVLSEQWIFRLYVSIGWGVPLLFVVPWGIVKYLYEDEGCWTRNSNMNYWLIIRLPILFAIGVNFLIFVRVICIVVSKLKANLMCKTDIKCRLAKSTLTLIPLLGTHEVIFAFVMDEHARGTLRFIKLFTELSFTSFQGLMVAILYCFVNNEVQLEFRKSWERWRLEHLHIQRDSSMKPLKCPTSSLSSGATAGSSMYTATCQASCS

Regarding `CC[C@H](C)[C@H](NC(=O)[C@H](Cc1ccccc1)NC(=O)[C@H](CCC(=O)O)NC(=O)[C@H](CCCNC(=N)N)NC(=O)[C@@H](NC(=O)[C@H](C)NC(=O)[C@H](CCC(=O)O)NC(=O)[C@H](CCCCN)NC(=O)[C@H](CCC(=O)O)NC(=O)[C@H](CCSC)NC(=O)[C@H](Cc1ccc(O)cc1)NC(=O)[C@@H](NC(=O)[C@H](CO)NC(=O)[C@H](Cc1ccc(O)cc1)NC(=O)[C@H](CC(=O)O)NC(=O)[C@H](CO)NC(=O)[C@@H](NC(=O)[C@H](Cc1ccccc1)NC(=O)[C@@H](NC(=O)CNC(=O)[C@H](CCC(=O)O)NC(=O)C(C)(C)NC(=O)[C@@H](N)Cc1ccc(O)cc1)[C@@H](C)O)[C@@H](C)O)[C@@H](C)CC)C(C)C)C(=O)N[C@@H](C)C(=O)N[C@@H](Cc1c[nH]c2ccccc12)C(=O)N[C@@H](CC(C)C)C(=O)N[C@H](C(=O)N[C@@H](CCCCN)C(=O)NCC(=O)N[C@@H](CCCNC(=N)N)C(=O)N[C@@H](CCCNC(=N)N)C(=O)N[C@@H](CCCNC(=N)N)C(=O)N[C@@H](CCCNC(=N)N)C(=O)N[C@@H](CCCNC(=N)N)C(=O)N[C@@H](CCCNC(=N)N)C(N)=O)C(C)C` [Compound 075] (H-Y[Aib]EGTFTSDYSIYMEKEAVREFIAWLVKGRRRRRR-NH2; N-terminus assumed), at hGLP-1R (Table 3, against native GLP-1), the “GLP-1 Receptor Relative Potency” value was 77.7. At hGIPR (Table 3, against native GIP), the “GIP Receptor Relative Potency” value came to 8.3.

Regarding `CC[C@H](C)[C@H](NC(=O)[C@H](Cc1ccccc1)NC(=O)[C@H](CCC(=O)O)NC(=O)[C@H](CCCNC(=N)N)NC(=O)[C@@H](NC(=O)[C@H](C)NC(=O)[C@H](CCC(=O)O)NC(=O)[C@H](CCCCN)NC(=O)[C@H](CCC(=O)O)NC(=O)[C@H](CCSC)NC(=O)[C@H](Cc1ccc(O)cc1)NC(=O)[C@@H](NC(=O)[C@H](CO)NC(=O)[C@H](Cc1ccc(O)cc1)NC(=O)[C@H](CC(=O)O)NC(=O)[C@H](CO)NC(=O)[C@@H](NC(=O)[C@H](Cc1ccccc1)NC(=O)[C@@H](NC(=O)CNC(=O)[C@H](CCC(=O)O)NC(=O)C(C)(C)NC(=O)[C@@H](N)Cc1ccc(O)cc1)[C@@H](C)O)[C@@H](C)O)[C@@H](C)CC)C(C)C)C(=O)N[C@@H](C)C(=O)N[C@@H](Cc1c[nH]c2ccccc12)C(=O)N[C@@H](CC(C)C)C(=O)N[C@H](C(=O)N[C@@H](CCCCN)C(=O)NCC(=O)NCC(=O)N1CCC[C@H]1C(=O)N[C@@H](CO)C(=O)N[C@@H](CO)C(=O)NCC(=O)N[C@@H](C)C(=O)N1CCC[C@H]1C(=O)N1CCC[C@H]1C(=O)N1CCC[C@H]1C(=O)N[C@@H](CO)C(=O)N[C@@H](CCCCNC(=O)CCCCCCCCCCCCCCC(=O)O)C(N)=O)C(C)C` [Compound 106], the EC50 stood at 0.922 nM on hGLP-1R (Table 3, CHO hGLP1R cells) and 0.097 nM on hGIPR (Table 3, CHO hGIPR cells). Besides, at hGLP-1R (Table 3, against native GLP-1), the “GLP-1 Receptor Relative Potency” value is on record as 157.8. Further, the “GIP Receptor Relative Potency” value on hGIPR (Table 3, against native GIP) was determined as 67.0.

In the case of `CC[C@H](C)[C@H](NC(=O)[C@H](Cc1ccccc1)NC(=O)[C@H](CCC(=O)O)NC(=O)[C@H](CCCCN)NC(=O)[C@H](C)NC(=O)[C@H](C)NC(=O)[C@H](CCC(N)=O)NC(=O)[C@H](CCCCN)NC(=O)[C@H](CCC(=O)O)NC(=O)[C@H](CCSC)NC(=O)[C@H](Cc1ccc(O)cc1)NC(=O)[C@@H](NC(=O)[C@H](CO)NC(=O)[C@H](Cc1ccc(O)cc1)NC(=O)[C@H](CC(=O)O)NC(=O)[C@H](CO)NC(=O)[C@@H](NC(=O)[C@H](Cc1ccccc1)NC(=O)[C@@H](NC(=O)CNC(=O)[C@H](CCC(=O)O)NC(=O)C(C)(C)NC(=O)[C@@H](N)Cc1ccc(O)cc1)[C@@H](C)O)[C@@H](C)O)[C@@H](C)CC)C(=O)N[C@@H](C)C(=O)N[C@@H](Cc1c[nH]c2ccccc12)C(=O)N[C@@H](CC(C)C)C(=O)N[C@H](C(=O)N[C@@H](CCCCN)C(=O)NCC(N)=O)C(C)C` [Compounds 025] (H-Y[Aib]EGTFTSDYSIYMEKQAAKEFIAWLVKG-NH2; N-terminus assumed), the half-maximal effective concentration (EC50) on hGLP-1R (Table 1, CHO/hGLP-1R cells, read-out: GLP-1R EC50) was 0.837 nM; on hGIPR (Table 1, CHO/hGIPR cells, read-out: GIPR EC50), 1.5 nM. In addition, at hGLP-1R (Table 1, against native GLP-1), the “GLP-1R Relative Potency” value is 131%. Also, at hGLP-1R (Table 3, against native GLP-1), the “GLP-1 Receptor Relative Potency” value is given as 131. Moreover, at hGIPR (Table 1, against native GIP), the “GIPR Relative Potency” value was found to be 33.3%. Further, the “GIP Receptor Relative Potency” value on hGIPR (Table 3, against native GIP) was found to be 33.3.

For orientation: EC50 means the concentration at which the effect is half-maximal.

(Values after patent US9453062B2, “Glucose dependent insulinotropic polypeptide analogs, pharmaceutical compositions and use thereof” (Beijing Hanmi Pharmaceutical Co., Ltd., priority 2011, dated 2016).)
